Source: patent publication US20090214607A1, “Topical use of teprenone” (SEDERMA, priority 2005, published 2009)

How the values were obtained:
[1] = Lipid peroxidation of liposomes using H2O2+FeCl2; type: biochemical; details: vs negative control
Method: (§1) In order to determine the action of teprenone as per the invention, the effect of the active substance on the lipid peroxidation of liposomes was analyzed. The liposomes were used to model cutaneous lipids.
In this method, liposomes are exposed to the test compound and a Fenton oxidative system. The peroxidation is determined by spectrophotometry. Trolox, a known anti-free radical agent, is used as the positive control at the same molar concentration as a teprenone.

Hsp27 = Hsp27 immunolabeling in UVB-irradiated human skin explants; type: cell-based; details: 0.1 mM
Excerpt: (§2) Heat Schock proteins (Hsp) are cellular protective molecules which contribute to the correct proteinic folding, thus preserving the protein activity. Hsp 27 is a protective chaperone protein very present in the keratinocytes at the basal state. In situation of UV stress, cell increases its rate of protection and Hsp 27 is strongly overexpressed. Hsp70 is a chaperone protein less expressed in a basal state but induced in response to the UV, thermics, mechanics or infectious stress.
(§3) Human skin explants are treated in a similar way to the previous experiment (protection on the catalase activity): taken from a plastic surgery, they are cultivated for 48 h in the presence or not, for control, of teprenone (or trolox) at various concentrations, then irradiated or not using a source UVB (2 J/cm2). After irradiation skin explants were post-treated (24 h) or not with teprenone (or trolox) at the same concentrations.
(§4) Explants were embedded in OCT, sectioned using a freezing microtome, and slide mounted. The mounted specimens were immunolabeled with anti-human Hsp antibody.

Hsp70 = Hsp70 immunolabeling in UVB-irradiated human skin explants; type: cell-based; details: 0.1 mM
Excerpt: as §2, §3, §4

catalase = test: Catalase activity in human skin explants after UVB (Clairborne-Aebi method); type: cell-based; details: after UVB 2 J/cm2; 0.05 mM
Method: Human skin explants obtained from a patient having undergone plastic surgery were cultured with or without teprenone or Trolox (positive control) for 48 hours then exposed to UV B radiation (2 J/cm^2). After irradiation, the explants were again cultured in fresh medium with or without teprenone or Trolox for 24 hours. Similars explants were also used in immunolabeling tests on heat shock proteins (HSP) and in the apoptosis study.
Catalase anti-oxidant activity was determined by the Clairborne-Aebi method. Hydrogen peroxide (H2O2) consumption is directly proportional to catalase activity. The consumption was determined by spectrophotometry at 240 nm

[2] = tested on: sunburn cells (SBC) in human skin explants; test: Sunburn cells (SBC) in human skin explants after UVB; type: cell-based; details: after UVB 2 J/cm^2
Method: With a view to determining the action of teprenone as per the invention, the effect of the active substance on the presence of sunburn cells (SBC) and apoptotic cell in human skin explants was investigated.
Human skin explants are treated in a way similar to the preceding experiment of description of the protective role of the teprenone on the catalase activity (obtained from a patient having undergone plastic surgery, cultured with or without teprenone for 48 hours then exposed to UV B radiation (2 J/cm^2). After irradiation, the explants were again cultured in fresh medium with or without teprenone for 24 hours).
SBC were evidenced on paraffin-wax-embedded skin explant sections by staining with […]. SBC, apoptotic keratinocytes with pyknotic nuclei and eosinophilic cytoplasm, are characteristic of mammalian epidermis exposed to UV B radiation.

[3] = Lipid peroxidation of liposomes using UVA radiation; type: biochemical; details: UVA induced, vs negative control
Method: as §1
In this method, liposomes are exposed to the test compound and then to UV A radiation. Peroxidation is determined by spectrophotometry at 233 nm.

## Cc1c(C)c2c(c(C)c1O)CCC(C)(C(=O)O)O2 (centres unmarked) [Trolox, 6-hydroxy-2,5,7,8-tetramethylchroman-2-carboxylic acid]
[1]; concentration 2.2 · 10^−2%
  Variation of peroxydation: −88%
[1]; concentration 2.2 · 10^−3%
  Variation of peroxydation: −87%
[1]; concentration 2.2 · 10^−4%
  Variation of peroxydation: −83%
[1]; concentration 7.5 · 10^−3%
  Variation of peroxydation: −87%
[1]; concentration 7.5 · 10^−4%
  Variation of peroxydation: −82%
Hsp27
  Hsp27: Protection vs. irradiated (%): 75%
Hsp27; UVB 2 J/cm2, n = 3
  Number of Hsp27 positive cells/cm: 380 cells/cm
Hsp70
  Hsp70: Protection vs. irradiated (%): 100%
Hsp70; UVB 2 J/cm2, n = 3
  Number of Hsp70 positive cells/cm: 40 cells/cm
catalase
  catalase activity: 90 UI/mg of protein
[2]; 0.05 mM
  % SBC (Sun Burn Cells): 45%
[2]; 0.1 mM
  % SBC (Sun Burn Cells): 30%
[3]; concentration 2.2 · 10^−2%
  Variation of peroxydation: −86%
[3]; concentration 2.2 · 10^−3%
  Variation of peroxydation: −88%
[3]; concentration 2.2 · 10^−4%
  Variation of peroxydation: −74%
[3]; concentration 7.5 · 10^−3%
  Variation of peroxydation: −88%
[3]; concentration 7.5 · 10^−4%
  Variation of peroxydation: −86%
